Experimental data from patent US12319693B2, “Crystalline forms of CFTR modulators” (Vertex Pharmaceuticals Incorporated, priority 2019, dated 2025).

Tests used:
F508del CFTR [1] = biological target: T1, F508del CFTR (Homo sapiens, UniProt P13569, DEL508-508); assay: Ussing chamber chloride transport in F508del/MF HBE cells; format: cell-based; settings: for chloride transport (effect in words): Compound I alone 16 to 24 h, Compound III added in the presence of Compound I or Compound I/Compound II
T1 construct: HBE cells derived from 3 F508del homozygous donors and 5 F508del/MF donors; endogenous in cells; host or cells: primary HBE cells from F508del/F508del and F508del/MF donors
Experimental: (§1) Ussing chamber studies were conducted to measure F508del CFTR-mediated chloride transport in HBE cells derived from 3 F508del homozygous donors and 5 F508del/MF donors (G542X, 3 donors; E585X, 1 donor; 3905InsT, 1 donor). As a positive control, maximally effective concentrations of N-(benzenesulfonyl)-6-[3-[2-[1-(trifluoromethyl)cyclopropyl]ethoxy]pyrazol-1-yl]-2-[(4S)-2,2,4-trimethylpyrrolidin-1-yl]pyridine-3-carboxamide (see WO 2018/064632) and N-[(6-amino-2-pyridyl)sulfonyl]-6-(3-fluoro-5-isobutoxy-phenyl)-2-[(4S)-2,2,4-trimethylpyrrolidin-1-yl]pyridine-3-carboxamide (see WO 2016/057572) in combination with Compound II/Compound III were included in each experiment.
(§2) In these CF cell lines, CFTR-mediated chloride transport was low in the absence of CFTR modulators, which is consistent with little-to-no CFTR at the cell surface. […] However, the efficacy of Compound I/Compound III and Compound I/Compound II/Compound III was similar at their respective EC90 values.

F508del CFTR [2] = biological target: T1, F508del CFTR; assay: Ussing chamber chloride transport in F508del/F508del HBE cells; format: cell-based; settings: for chloride transport (effect in words): Compound I alone 16 to 24 h, Compound III added in the presence of Compound I or Compound I/Compound II
Experimental: as §1, §2

[3] = biological target: CFTR-mediated chloride transport (Homo sapiens, UniProt P13569); assay: Membrane potential dye assay in human intestinal epithelial enteroid cells; format: cell-based; settings: 18-24 h incubation, acute 10 μM forskolin + 300 nM Compound III
Experimental: Base medium (ADF+++) consisted of Advanced DMEM/Ham's F12, 2 mM Glutamax, 10 mM HEPES, 1μ/ml penicillin/streptomycin.
Intestinal enteroid maintenance medium (IEMM) consisted of ADF+++, 1×B27 supplement, 1×N2 supplement, 1.25 mM N-acetyl cysteine, 10 mM Nicotinamide, 50 ng/mL hEGF, 10 nM Gastrin, 1 μg/mL hR-spondin-1, 100 ng/mL hNoggin, TGF-b type 1 inhibitor A-83-01, 100 μg/mL Primocin, 10 μM P38 MAPK inhibitor SB202190.
Bath 1 Buffer consisted of 1 mM MgCl2, 160 mM NaCl, 4.5 mM KCl, 10 mM HEPES, 10 mM Glucose, 2 mM CaCl2).
Chloride Free Buffer consisted of 1 mM Magnesium Gluconate, 2 mM Calcium Gluconate, 4.5 mM Potassium Gluconate, 160 mM Sodium Gluconate, 10 mM HEPES, 10 mM Glucose.
Bath1 Dye Solution consisted of Bath 1 Buffer, 0.04% Pluronic F127, 20 μM Methyl Oxonol, 30 μM CaCCinh-A01, 30 μM Chicago Sky Blue. […]
Enteroid cells were incubated with test compound in IEMM for 18-24 h at 37° C., 95% humidity and 5% CO2. […] Chloride transport was initiated by addition of Chloride Free Dye Stimulation Solution and the fluorescence signal was read for 15 min. […] Chloride transport was then expressed as a percentage of the chloride transport following treatment with 3 μM Compound I, 3 μM Compound II, and 300 nM acute Compound III triple combination control (% Activity). […]

[4] = Pharmacokinetics after a single oral administration in male monkeys; format: in vivo; settings: nominal dose 1 mg/kg, oral bioavailability
Experimental: (§3) Following a single oral administration of Compound I in male animals, Compound I mean tmax values were 9 h in rats, 4 h in dogs, and 3 h in monkeys.

[5] = Systemic exposure with increasing dose and repeated oral administration for 28 d in dogs; format: in vivo; settings: as the dose increased
Experimental: (§4) Following repeated oral administration of Compound I for 28 d in rats and dogs, accumulation of Compound I exposure was observed. Systemic exposure to Compound I on Day 28 was higher than on Day 1 (Day 28/Day 1 AUC024h ratio ranged from 1.63 to 2.70 in male rats, 5.01 to 8.26 in female rats, 1.73 to 2.64 in male dogs, and 1.82 to 2.23 in female dogs).

[6] = Safety analysis of ongoing clinical study (Cohorts A1 to A5, B, C); format: in vivo, human
Experimental: A safety analysis of an ongoing clinical study was performed for 37 subjects in Cohorts A1 to A5, 33 subjects in Cohort B, and 17 subjects in Cohort C, who were exposed to at least 1 dose of study drug (Compound I or placebo) as a monotherapy and as part of a triple combination with Compound II or Compound III.

[7] = Systemic exposure with increasing dose and repeated oral administration for 28 d in rats; format: in vivo
Experimental: as §4

[8] = Pharmacokinetics after a single oral administration in male rats; format: in vivo
Experimental: as §3

[9] = Pharmacokinetics after a single oral administration in male dogs; format: in vivo; settings: nominal dose 1 mg/kg
Experimental: as §3

[10] = Relative stability of polymorphic / solvate forms; format: physicochemical; settings: water activity ≤0.95 at ambient temperature
[11] = with a fixed combination of Compound II
[12] = with a fixed concentration of Compound III or Compound II/Compound III

T1 sequence (P13569 with tags, fused parts or gaps DEL508-508): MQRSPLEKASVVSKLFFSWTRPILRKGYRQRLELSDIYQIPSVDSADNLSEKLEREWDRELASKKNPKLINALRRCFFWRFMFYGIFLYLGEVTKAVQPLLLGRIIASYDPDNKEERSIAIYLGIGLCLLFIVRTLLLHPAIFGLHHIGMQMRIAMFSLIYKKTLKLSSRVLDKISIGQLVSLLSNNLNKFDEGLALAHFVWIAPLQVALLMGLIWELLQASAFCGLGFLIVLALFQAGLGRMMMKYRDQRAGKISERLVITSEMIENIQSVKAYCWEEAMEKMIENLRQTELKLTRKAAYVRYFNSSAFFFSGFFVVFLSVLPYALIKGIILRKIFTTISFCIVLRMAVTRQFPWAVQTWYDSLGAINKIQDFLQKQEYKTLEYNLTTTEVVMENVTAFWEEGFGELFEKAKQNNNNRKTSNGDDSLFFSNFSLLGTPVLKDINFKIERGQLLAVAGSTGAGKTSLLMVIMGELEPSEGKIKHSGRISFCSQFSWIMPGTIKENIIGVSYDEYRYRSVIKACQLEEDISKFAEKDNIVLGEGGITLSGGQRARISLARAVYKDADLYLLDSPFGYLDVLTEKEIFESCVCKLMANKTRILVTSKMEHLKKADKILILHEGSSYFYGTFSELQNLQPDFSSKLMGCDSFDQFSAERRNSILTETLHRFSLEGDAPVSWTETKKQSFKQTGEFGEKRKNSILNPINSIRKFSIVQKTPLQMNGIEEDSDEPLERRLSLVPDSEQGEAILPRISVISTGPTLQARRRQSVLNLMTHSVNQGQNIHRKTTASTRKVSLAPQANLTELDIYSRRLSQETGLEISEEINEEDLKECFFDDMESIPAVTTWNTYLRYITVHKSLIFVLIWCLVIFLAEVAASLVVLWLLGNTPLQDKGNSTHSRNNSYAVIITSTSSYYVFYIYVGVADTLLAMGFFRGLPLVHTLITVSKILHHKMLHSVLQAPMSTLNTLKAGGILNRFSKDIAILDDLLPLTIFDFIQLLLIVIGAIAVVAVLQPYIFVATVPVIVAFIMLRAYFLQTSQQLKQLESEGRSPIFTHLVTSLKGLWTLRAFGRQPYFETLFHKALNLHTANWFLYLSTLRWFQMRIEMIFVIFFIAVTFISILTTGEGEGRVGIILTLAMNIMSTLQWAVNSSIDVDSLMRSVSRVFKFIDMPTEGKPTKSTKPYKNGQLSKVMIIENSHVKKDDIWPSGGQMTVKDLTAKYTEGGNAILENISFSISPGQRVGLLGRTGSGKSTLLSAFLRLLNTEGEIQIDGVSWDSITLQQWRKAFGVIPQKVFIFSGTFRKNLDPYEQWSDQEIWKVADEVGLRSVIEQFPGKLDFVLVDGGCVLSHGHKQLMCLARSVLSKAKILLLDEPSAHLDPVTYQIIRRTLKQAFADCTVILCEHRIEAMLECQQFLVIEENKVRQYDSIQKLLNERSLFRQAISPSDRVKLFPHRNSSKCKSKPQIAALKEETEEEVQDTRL
Sequence of CFTR-mediated chloride transport (P13569 whole entry): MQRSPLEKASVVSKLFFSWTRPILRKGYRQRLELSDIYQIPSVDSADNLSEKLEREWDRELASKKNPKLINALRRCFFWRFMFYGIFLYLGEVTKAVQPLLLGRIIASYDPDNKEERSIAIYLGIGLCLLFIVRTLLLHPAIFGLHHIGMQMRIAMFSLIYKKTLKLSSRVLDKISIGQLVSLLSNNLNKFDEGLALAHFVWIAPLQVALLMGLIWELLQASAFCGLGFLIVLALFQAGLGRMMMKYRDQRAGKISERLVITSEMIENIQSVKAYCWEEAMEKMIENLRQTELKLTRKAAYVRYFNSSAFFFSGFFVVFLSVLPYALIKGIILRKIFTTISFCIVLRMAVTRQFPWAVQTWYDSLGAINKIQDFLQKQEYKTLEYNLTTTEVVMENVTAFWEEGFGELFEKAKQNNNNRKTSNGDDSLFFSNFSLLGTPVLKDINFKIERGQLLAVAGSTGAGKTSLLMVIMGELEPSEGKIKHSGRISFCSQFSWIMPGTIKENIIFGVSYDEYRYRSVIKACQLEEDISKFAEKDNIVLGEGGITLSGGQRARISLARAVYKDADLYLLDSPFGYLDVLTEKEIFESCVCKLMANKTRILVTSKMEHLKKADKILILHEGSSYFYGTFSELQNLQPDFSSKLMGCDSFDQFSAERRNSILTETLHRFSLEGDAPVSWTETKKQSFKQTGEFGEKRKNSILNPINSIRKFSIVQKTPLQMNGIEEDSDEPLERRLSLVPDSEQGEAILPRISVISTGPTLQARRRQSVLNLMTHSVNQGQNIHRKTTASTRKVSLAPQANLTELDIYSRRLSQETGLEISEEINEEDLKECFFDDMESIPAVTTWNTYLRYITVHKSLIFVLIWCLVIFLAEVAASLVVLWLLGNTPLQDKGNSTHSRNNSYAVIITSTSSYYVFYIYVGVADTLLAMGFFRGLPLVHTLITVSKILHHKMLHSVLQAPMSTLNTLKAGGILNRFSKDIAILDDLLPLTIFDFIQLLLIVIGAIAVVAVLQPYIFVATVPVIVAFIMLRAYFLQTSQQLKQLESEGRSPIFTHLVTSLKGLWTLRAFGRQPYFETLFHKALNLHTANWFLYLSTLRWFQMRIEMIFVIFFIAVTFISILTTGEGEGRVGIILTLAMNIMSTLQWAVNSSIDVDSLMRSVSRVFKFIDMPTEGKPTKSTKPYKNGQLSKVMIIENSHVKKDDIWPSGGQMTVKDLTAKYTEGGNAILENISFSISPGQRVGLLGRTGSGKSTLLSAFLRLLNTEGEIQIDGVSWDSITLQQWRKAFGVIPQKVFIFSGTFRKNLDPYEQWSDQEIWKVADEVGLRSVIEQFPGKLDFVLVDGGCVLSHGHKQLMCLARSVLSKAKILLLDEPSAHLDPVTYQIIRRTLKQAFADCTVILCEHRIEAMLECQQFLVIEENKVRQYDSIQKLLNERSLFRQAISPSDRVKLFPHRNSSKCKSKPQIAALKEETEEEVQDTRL

Row | SMILES | chloride transport (effect in words) (F508del CFTR [1]) | chloride transport (effect in words) (F508del CFTR [2]) | EC50 [3] [nM] | Max. Activity ([3]; % of chloride transport with 3 μM Compound I, 3 μM Compound II, 300 nM acute Compound III control) | F [4] [%] | increase of systemic exposure with dose [5] | safety and tolerability ([6]; up to 20 mg qd in triple combination with Compound II and Compound III) | safety and tolerability ([6]; up to a dose of 60 mg qd in monotherapy) | Dosenormalized exposure, sex difference [7] | increase of systemic exposure with dose ([7]; as the dose increased) | synergy analysis (F508del CFTR [1]; [11]) | synergy analysis (F508del CFTR [1]; [12]) | synergy analysis (F508del CFTR [2]; [11]) | synergy analysis (F508del CFTR [2]; [12]) | F ([8]; nominal dose 3 mg/kg, oral bioavailability) [%] | bioavailability ([8]; rat, in vivo, 3 mg/kg, read-out: Mean oral bioavailability (F)) [%] | tmax ([9]; mean ± SD (n = 3)) [h] | F ([9]; oral bioavailability) [%] | relative polymorphic stability [10]
1 | CC(C)(C)c1cc(C(C)(C)C)c(NC(=O)c2c[nH]c3ccccc3c2=O)cc1O [Compound III, N-[2,4-bis(1,1-dimethylethyl)-5-hydroxyphenyl]-1,4-dihydro-4-oxoquinoline-3-carboxamide, reference compound] | strongly potentiated chloride transport | strongly potentiated chloride transport | – | – | – | – | – | – | – | – | – | – | – | – | – | – | – | – | –
2 | CC1(C)C[C@@H]2CCCNc3cccc(n3)S(=O)(=O)NC(=O)c3ccc(-n4ccc(OCCC5C6(CC6)C56CC6)n4)nc3N1C2 [Compound I, (14S)-8-[3-(2-{Dispiro[2.0.2.1]heptan-7-yl}ethoxy)-1H-pyrazol-1-yl]-12,12-dimethyl-2λ6-thia-3,9,11,18,23-pentaazatetracyclo[17.3.1.111,14.05,10]tetracosa-1(22),5,7,9,19(23),20-hexaene-2,2,4-trione] | modest increase in chloride transport | modest increase in chloride transport | < 1000 | +++ (+++ is >60%) | 12.9 | more than doseproportional | generally safe and well-tolerated | generally safe and well-tolerated | higher in female rats than male rats | more than doseproportional | modestly synergistic | highly synergistic | modestly synergistic | highly synergistic | 76.9 | 76.9 | 4.00 ± 0.00 | 49.7 | –
3 | CC1(C)C[C@@H]2CCCNc3cccc(n3)S(=O)(=O)NC(=O)c3ccc(-n4ccc(OCCC5C6(CC6)C56CC6)n4)nc3N1C2 [Compound I free Form A] | – | – | – | – | – | – | – | – | – | – | – | – | – | – | – | – | – | – | most stable polymorphic form
